Results reported in patent publication US20120083522A1, “MODULATION OF INFLAMMATORY RESPONSES BY FACTOR XI” (Isis Pharmaceuitcals, inc., priority 2009, published 2012).
In the oligonucleotide strings, read from the 5' end, every base follows the letter of its sugar. An asterisk marks phosphorothioate; unmarked linkages are phosphodiester. Other units and linkages are bracketed, terminal groups are in braces. A string of capitals states the bases alone. e = 2'-O-(2-methoxyethyl) (MOE); [5mC] = 5-methylcytosine; d = 2'-deoxy (DNA)

Assays:
human Factor XI mRNA = assay: Antisense inhibition of human Factor XI in HepG2 cells, 75 nM, lipofectin (Example 1); assay type: cell-based; details: HepG2, 75 nM, approximately 24 hours, gapmers targeted to SEQ ID NO: 1, relative to untreated control cells
Method: Antisense oligonucleotides targeted to a Factor XI nucleic acid were tested for their effects on Factor XI mRNA in vitro. Cultured HepG2 cells at a density of 10,000 cells per well were transfected using lipofectin reagent with 75 nM antisense oligonucleotide. After a treatment period of approximately 24 hours, RNA was isolated from the cells and Factor XI mRNA levels were measured by quantitative real-time PCR. Factor XI mRNA levels were adjusted according to total RNA content, as measured by RIBOGREEN®. Results are presented as percent inhibition of Factor XI, relative to untreated control cells.
The chimeric antisense oligonucleotides in Tables 1 and 2 were designed as 5-10-5 MOE gapmers. The gapmers are 20 nucleotides in length, wherein the central gap segment is comprised of 10 2′-deoxynucleotides and is flanked on both sides (in the 5′ and 3′ directions) by wings comprising 5 nucleotides each. Each nucleotide in the 5′ wing segment and each nucleotide in the 3′ wing segment has a 2′-MOE modification. The internucleoside linkages throughout each gapmer are phosphorothioate (P═S) linkages. All cytidine residues throughout each gapmer are 5-methylcytidines. “Target start site” indicates the 5′-most nucleotide to which the gapmer is targeted. “Target stop site” indicates the 3′-most nucleotide to which the gapmer is targeted. […]

[1] = system: IL-1β, IL-6, IFN-γ, TNF-α, IL-8, MIP-1α, MCP-1, MIP-10, RANTES; assay: Cynomolgus monkeys: cytokine and chemokine assays (Example 30); assay type: in vivo
Method: (§1) Groups, each consisting of two male and two female monkeys, were injected subcutaneously with 25 mg/kg of ISIS 416850, ISIS 449709, ISIS 445522, ISIS 449710, ISIS 449707, ISIS 449711, ISIS 449708, 416858 and ISIS 445531. Antisense oligonucleotide was administered to the monkeys at 25 mg/kg three times per week for week 1 and 25 mg/kg twice per week for weeks 2 to 8. A control group, consisting of two male and two female monkeys was injected subcutaneously with PBS according to the same dosing regimen. Body weights were taken 14 days and 7 days before the start of treatment and were then measured weekly throughout the treatment period. Blood samples were collected 14 days and 5 days before the start of treatment and subsequently several times during the dosing regimen for measurement of various hematologic factors. On day 55, the monkeys were euthanized by exsanguination while under deep anesthesia, and organs harvested for further analysis.
Blood samples obtained from all monkey groups were sent to Pierce Biotechnology (Woburn, Mass.) for measurements of chemokine and cytokine levels. Levels of IL-1β, IL-6, IFN-γ, and TNF-α were measured using the respective primate antibodies and levels of IL-8, MIP-1α, MCP-1, MIP-10 and RANTES were measured using the respective cross-reacting human antibodies. Measurements were taken 14 days before the start of treatment and on day 55, when the monkeys were euthanized.

[2] = Cynomolgus monkeys: body and organ weights (Example 30); assay type: in vivo; details: day 55
Method: as §1
Organ weights were taken after the animals were euthanized on day 55, and livers, kidneys and spleens were harvested.

[3] = system: collagen-induced arthritis model; assay: Arthritis Study B: collagen-induced arthritis, clinical effects (Example 11); assay type: in vivo, DBA/1J mice
Method: The effect of inhibition of Factor XI and its role in fibrin accumulation in the joints leading to joint inflammation and rheumatoid arthritis was evaluated in a murine collagen-induced arthritis (CIA) model. […] Arthritis induced in mice administered collagen can be visually assessed and clinically scored as described by Marty et al. (J Clin Invest, 107:631-640, 2001) where 1 point is given for each swollen digit except the thumb (maximum, 4), 1 point is given for the tarsal or carpal joint, and 1 point is given for the metatarsal or metacarpal joint with a maximum score of […]. Each paw was graded individually, the cumulative clinical arthritic score per mouse reaching a maximum of 22 points
(§2) In a group of 20 DBA/1J mice, 20 mg/kg of ISIS 404071 were injected subcutaneously twice a week for ten weeks. In a second group of 20 DBA/1J mice, 20 mg/kg of ISIS 404057 were injected subcutaneously twice a week for ten weeks. In a third control group of 20 DBA/1J mice, 20 mg/kg of ISIS 421208 were injected subcutaneously twice a week for ten weeks. Two control groups of 20 mice each were injected with PBS twice a week for ten weeks.
Two and a half weeks after the first oligonucleotide dose, type II bovine collagen in complete Freund's adjuvant was injected subcutaneously at the base of the tail in all the experimental groups and one PBS control group. A booster injection containing 100 μg collagen type II in incomplete Freund's adjuvant was injected subcutaneously at the base of the tail at a different injection site on day 21 after the first collagen injection in these groups.
(§3) Mice in all groups were examined daily after day 30 after the first collagen injection for the visual appearance of arthritis in peripheral joints. The results in Table 22 are expressed as percent change compared to the PBS control except for the liver and spleen weight.

murine Factor XI mRNA [4] = assay: In vivo antisense inhibition of murine Factor XI: liver RNA analysis (Example 10); details: BALB/c mice, relative to PBS control
Method: Several antisense oligonucleotides targeted to murine Factor XI mRNA (GENBANK Accession No. NM_028066.1, incorporated herein as SEQ ID NO: 6) showing statistically significant dose-dependent inhibition from the in vitro study were evaluated in vivo. BALB/c mice were treated with ISIS 404057 ([…], target start site 487, incorporated herein as SEQ ID NO: 10) and ISIS 404071 ([…], target start site 869, incorporated herein as SEQ ID NO: 11).
BALB/c mice were injected with 5 mg/kg, 10 mg/kg, 25 mg/kg, or 50 mg/kg of ISIS 404057 or ISIS 404071 twice a week for 3 weeks. A control group of mice was injected with phosphate buffered saline (PBS) twice a week for 3 weeks. Mice were sacrificed 5 days after receiving the last dose. Whole liver was harvested for RNA analysis and plasma was collected for protein analysis.
RNA was extracted from liver tissue for real-time PCR analysis of Factor XI. […] Results are presented as percent inhibition of Factor XI, relative to control.

Factor XI mRNA = assay: Arthritis Study B: liver Factor XI mRNA; assay type: in vivo, DBA/1J mice; details: FIG. 4B
Method: as §2, §3
The difference between the effective of the two Factor XI antisense oligonucleotides may be related to the relative effectiveness of each oligonucleotide in inhibiting Factor XI mRNA as shown in FIG. 4B.

murine Factor XI mRNA [5] = assay: Colitis Study B: Factor XI mRNA in the liver; assay type: in vivo, Swiss Webb mice; details: DSS-induced colitis, day 7, 20 mg/kg s.c. twice a week for 3 weeks, percent change compared to the PBS control
Method: (§4) In a first group of 8 Swiss Webb mice, 20 mg/kg of ISIS 404071 was injected subcutaneously twice a week for 3 weeks. In a second group of 8 Swiss Webb mice, 20 mg/kg of ISIS 404057 was subcutaneously injected twice a week for 3 weeks. In a third control group of 8 Swiss Webb mice, 20 mg/kg of ISISI 421208 was injected subcutaneously twice a week for 3 weeks. Two control groups of 8 mice each were injected with PBS twice a week for 3 weeks. After the oligonucleotide treatment, 4% DSS in water was administered ad libitum for 6 days to all the experimental groups and one PBS control group.
(§5) Mice in all groups were weighed at day 0 and daily after administration of DSS. Mice were sacrificed at the end of the study on day 7 after DSS was administered, their livers and colons were harvested for RNA analysis, and their body weights and colon lengths were measured.
RT-PCR analysis of Factor XI mRNA was performed. As presented in Table 27 and FIG. 10, antisense oligonucleotides targeting Factor XI achieved statistically significant dose-dependent reduction of murine Factor XI over the PBS control in the liver. All the measurements are normalized to cyclophilin.
All the results in Table 27 are expressed as percent change compared to the PBS control.

[6] = system: DSS-induced colitis model; assay: Colitis Study B: body weight and colon length; assay type: in vivo, Swiss Webb mice; details: for Body weight / Colon length: DSS-induced colitis, day 7, 20 mg/kg s.c. twice a week for 3 weeks, percent change compared to the PBS control
Method: as §4, §5

[7] = system: OVA/alum-induced asthma model; assay: OVA-induced asthma model: mucus production (Example 13); assay type: in vivo, BALB/c mice; details: BALB/c mice, 50 mg/kg s.c. twice a week for 4 weeks, PAS stain of lung sections
Method: (§6) The mice were divided into four treatment groups of 5 mice each. One group received subcutaneous injections of ISIS 404071 at a dose of 50 mg/kg twice a week for 4 weeks. One group of mice received subcutaneous injections of control oligonucleotide, ISIS 421208, which is a mismatch oligonucleotide sequence of ISIS 404071, at a dose of 50 mg/kg twice a week for 4 weeks. Two groups of mice received subcutaneous injections of PBS twice a week for 4 weeks. One PBS group remained untreated and served as the control group. The second PBS group and both the oligonucleotide treated groups were injected with OVA/alum on days 0 and 14 and nebulized with OVA in PBS on days 24, 25, and 26. The first OVA application served to sensitize the mice against OVA while the second was a challenge application to provoke an asthmatic reaction. Two days following the final dose, the mice were euthanized, bronchial lavage (BAL) was collected and analyses done.
Lung sections were stained with periodic acid […] (PAS) base stain that stains mucus, which is produced during asthma attacks (Rogers, D. F. Curr. Opin Pharmacol. 2004. 4: 241-250). The number of airways containing mucus as a percentage of the total airways in the lungs was evaluated.

[8] = system: OVA/alum-induced asthma model; assay: OVA-induced asthma model: BAL eosinophil recruitment (Example 13); assay type: in vivo, BALB/c mice; details: percentage of total cells in BAL, 50 mg/kg s.c. twice a week for 4 weeks
Method: The effect of antisense oligonucleotide inhibition of Factor XI and its role in ameliorating asthma was evaluated in an OVA/alum-induced asthma model. Administration of ovalbumin to animals is a well known method to induce […] and has been previously described by Henderson et al. (J. Exp. Med., 1996, 184: 1483-1494).
as §6
Bronchial asthma, even in its mild form, is characterized by local infiltration and activation of inflammatory and immunoeffector cells, including T lymphocytes, macrophages, eosinophils, and mast cells (Smith D. L. et al., Am. Rev. Respir. Dis. 1993. 148: 523-532). The effect of treatment with ISIS 404071 on bronchoalveolar lavage (BAL) eosinophil recruitment was assessed. BAL cells were stained with hemotoxylin and eosin (H&E). The results are presented in Table 49 as a percentage of total cells in BAL.

[9] = Arthritis Study B: liver and spleen weight, ALT, AST; assay type: in vivo; details: collagen-treated DBA/1J mice, 20 mg/kg s.c. twice a week for ten weeks
Method: as §2, §3

[10] = day −14 (before start of treatment)
[11] = DBA/1J mice, 20 mg/kg s.c. twice a week for ten weeks, end of study

412213 (antisense eA*eA*eA*e[5mC]*eA*dA*dG*d[5mC]*dA*dA*d[5mC]*d[5mC]*dG*dG*dG*eA*eT*eG*eA*eT) [compound 412213]
% inhibition (human Factor XI mRNA): 71%

ISIS 449711: microwalk gapmer of Table 53 (antisense eA*e[5mC]*dA*dG*dT*dT*dT*d[5mC]*dT*dG*dG*d[5mC]*eA*eG)
IL-1β level ([1]; 25 mg/kg s.c., day 55): 146 pg/mL
MIP-1β level ([1]; 25 mg/kg s.c., day 55): 91 pg/mL
IL-1β level [1, 10]: 79 pg/mL
MIP-1β level [1, 10]: 24 pg/mL
spleen weight (in words) [2]: caused increase in spleen weight

TCCTGGCATTCTCGAGCATT (eT*e[5mC]*e[5mC]*eT*eG*dG*d[5mC]*dA*dT*dT*d[5mC]*dT*d[5mC]*dG*dA*eG*e[5mC]*eA*eT*eT) [ISIS 404057, 5-10-5 MOE gapmer targeting murine Factor XI, target start site 487]
amount of arthritis assessed (in words) ([3]; Arthritis Study B, 20 mg/kg twice a week for ten weeks, compared to untreated mice): did not affect the amount of arthritis
% inhibition (murine Factor XI mRNA [4]; 5 mg/kg twice a week for 3 weeks): 40%
% inhibition (murine Factor XI mRNA [4]; 10 mg/kg twice a week for 3 weeks): 64%
% inhibition (murine Factor XI mRNA [4]; 25 mg/kg twice a week for 3 weeks): 85%
% inhibition (murine Factor XI mRNA [4]; 50 mg/kg twice a week for 3 weeks): 95%
Factor XI inhibition in liver (in words) (Factor XI mRNA): lack of Factor XI inhibition
Liver Factor XI mRNA (murine Factor XI mRNA [5]): −50%
body weight (in words) ([6]; Colitis Study B, FIG. 9): did not have any significant change in body weight
Body weight [6]: −16%
Colon length [6]: −11%

TCGGAAGC GACTCTTATATG (eT*e[5mC]*eG*eG*eA*dA*dG*d[5mC]*dG*dA*d[5mC]*dT*d[5mC]*dT*dT*eA*eT*eA*eT*eG) [ISIS 421208, control oligonucleotide for ISIS 404071 with 8 mismatches, 5-10-5 MOE gapmer, reference compound]
% of CIA [3, 11]: 81%
% of paws affected [3, 11]: 45%
Average no. of paws affected [3, 11]: 1.7
Clinical severity of CIA [3, 11]: 7.75
Mucus production, % airways containing mucus [7]: 49 % airways
Liver Factor XI mRNA (murine Factor XI mRNA [5]): +25%
Eosinophils [8]: 51%
Body weight [6]: −10%
Colon length [6]: −33%
Liver ALT [9]: 70.06
Liver AST [9]: 165.12
Liver Weight as a % of Body Weight [9]: 6.14%
Spleen Weight as a % of Body Weight [9]: 0.718 % of Body Weight
